Measurements published in patent publication US20030202977A1, “Treatment of osteoarthritis” (New York University, priority 1998, published 2003).
Marks after values point to notes of the source that are not given here.

Legend:
[1] = tested on: human osteoarthritis-affected cartilage; assay: Osteoarthritis-explant assay: release of inflammatory mediators from cartilage organ cultures; assay type: cell-based; conditions: for Effect on PGE2 production / Effect on NO production/accumulation: osteoarthritis-affected cartilage; for Effect on NO production/accumulation: compared to control cartilage; for Nitrite / PGE2: per 100 mg cartilage, 72 hours post stimulation, mean ± S.D., n=3; for Nitrite: JBS5 0.5 μg/ml, αvβ3 Abs 5 μg/ml, L-NMMA 500 μM, IL-1β 1 ng/ml, RGD or RGE 1 mg/ml, control 1.2 ± 0.2; for PGE2: control 13.1 ± 0.2
From the text: ELISA kits for IL-1β, IL-6 and IL-8 were purchased from R and D (Minneapolis, Minn.). Cyclic RGD and RGE peptides were procured form Bachem Biosciences, Inc. (King of Prussia, Pa.). Anti-αvβ3 (JBS5) and anti-3 (LM609) were purchased from Chemicon International (Temecula, Calif.). Another anti-αvβ3 antibody (mAb13) was a generous gift from Dr. Yamada (NIH, Bethesda, Md.).
Cartilage slices were taken from the knees of patients who had been diagnosed with advanced osteoarthritis, ages 50-70 years, who were undergoing knee replacement surgery. Non-arthritic knee cartilage, normal control, ages 20-70 years, was obtained from patients with fractures or from accident victims after knee amputation.
Knee articular cartilage from osteoarthritis patients or normal individuals was cut into 3 mm discs, and 4-6 discs were placed (triplicate or quadruplicate) into a 24-well plate containing 2 ml F-12 medium+0.1% human albumin in the presence or absence of anti-αvβ3 (JBS5) or anti-3 (LM609) antibodies along with various modulators, as previously described by Amin et al (1995 and 1997).
(§1) NO production was measured by estimating the stable NO metabolite, nitrite, in condition medium by modified Griess reaction, Gilliam et al (1993). PGE2 was analyzed from supernatant by RIA, Amin et al (1997).
OA-affected cartilage was incubated in the medium with various modulators: 0.5 μg/ml of α5β1 (JBS5), 5 μg/ml αvβ3 Abs, L-NMMA (500 μM), IL-1β (1 ng/ml), 1 mg/ml of RGD or RGE. The accumulation of IL-1β, IL-8, IL-6, nitrite and PGE2 were estimated 72 hours post stimulation. Data represents±S.D. where n=3. The P values described are compared with the (control) unstimulated OA-affected cartilage. The data represent one of the two similar experiments.

[2] = tested on: primary bovine chondrocytes; assay: NO and PGE2 production in primary bovine chondrocytes; assay type: cell-based
Protocol: Bovine chondrocytes were seeded in 24 well plates at a density of 0.5×10^6 cells/well in 2 ml medium. After 24 hours post-seeding, the cells were treated with either 50 ng of JBS5 monoclonal antibody or 1 ng/ml IL-1β alone and in the presence and absence of 0.5 μg/ml of sIL-1RII for 72 hours. NO and PGE2 were estimated as described in Materials and Methods. The data present one of the two similar experiments. Data represent mean±s.d. value. The p values described are compared with IL-l (*) or anti-α5β1 monoclonal antibody (**); *p≦0.01, **p≦0.01.
Bovine chondrocytes were seeded in 24 well plates and stimulated with 1 ng/ml Il-1β, 100 μg/ml LPS, IL-1β+LPS+TNFα and anti-α5β1 monoclonal antibody in the presence or absence of 5 μg/ml anti-αvβ3. The accumulation of NO and PGE2 was estimated at the end of 72 hours. The data represent one of the two similar experiments the data represent mean±s.d. value.
Bovine chondrocytes were isolated as previous described by Attur et al 1998. Briefly, cartilage slices from bovine cartilage were finely minced and digested sequentially with 0.2% testicular hyaluronidase for five minutes at 37° C., and 0.2% collagenase for 1-2 hours at 37° C. After being strained through sterile nylon mesh, the cells were centrifuged at 1200×g for ten minutes. The cell pellets were washed twice with Ham's F-12 medium, followed by resuspension and centrifuging at 1000×g for ten minutes. Finally, the pellets were suspended in complete F-12 medium before being plated to flasks.
as §1

[3] = molecular target: α5β1 integrin of human cartilage chondrocytes (human) (UniProt P08648); assay: cell-based or functional assay
[4] = tested on: chondrocytes; assay: Nitric oxide versus PGE2 production in chondrocytes; assay type: cell-based

Chain of UniProt P08648 (P08648 42-1049, chain 1 of 2): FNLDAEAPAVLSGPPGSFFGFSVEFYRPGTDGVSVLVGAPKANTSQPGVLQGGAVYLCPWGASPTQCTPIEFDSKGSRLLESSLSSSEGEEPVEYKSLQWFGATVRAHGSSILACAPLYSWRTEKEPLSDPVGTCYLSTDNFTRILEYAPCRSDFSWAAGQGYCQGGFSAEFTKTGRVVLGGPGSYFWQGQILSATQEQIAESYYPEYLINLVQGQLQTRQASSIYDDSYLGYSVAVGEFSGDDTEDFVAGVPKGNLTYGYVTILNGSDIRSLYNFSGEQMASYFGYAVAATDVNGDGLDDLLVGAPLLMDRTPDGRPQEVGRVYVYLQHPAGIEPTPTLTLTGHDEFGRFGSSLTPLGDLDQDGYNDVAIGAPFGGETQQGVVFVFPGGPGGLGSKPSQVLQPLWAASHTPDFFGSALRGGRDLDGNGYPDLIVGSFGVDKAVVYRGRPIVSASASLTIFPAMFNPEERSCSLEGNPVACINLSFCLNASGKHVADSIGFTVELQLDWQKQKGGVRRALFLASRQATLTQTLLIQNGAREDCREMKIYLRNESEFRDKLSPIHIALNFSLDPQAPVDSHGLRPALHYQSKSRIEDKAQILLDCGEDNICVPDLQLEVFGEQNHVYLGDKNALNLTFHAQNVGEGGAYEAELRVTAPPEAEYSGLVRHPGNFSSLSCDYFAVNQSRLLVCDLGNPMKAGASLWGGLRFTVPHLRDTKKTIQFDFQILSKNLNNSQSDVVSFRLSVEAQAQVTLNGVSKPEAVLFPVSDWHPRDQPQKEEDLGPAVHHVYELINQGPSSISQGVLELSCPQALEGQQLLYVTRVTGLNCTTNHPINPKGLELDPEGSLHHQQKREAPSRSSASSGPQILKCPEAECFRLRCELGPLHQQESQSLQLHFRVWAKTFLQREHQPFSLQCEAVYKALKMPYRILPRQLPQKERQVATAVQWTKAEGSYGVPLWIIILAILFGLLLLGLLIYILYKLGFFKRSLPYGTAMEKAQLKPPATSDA
Chain of UniProt P08648 (P05556 21-798, chain 2 of 2, further chain): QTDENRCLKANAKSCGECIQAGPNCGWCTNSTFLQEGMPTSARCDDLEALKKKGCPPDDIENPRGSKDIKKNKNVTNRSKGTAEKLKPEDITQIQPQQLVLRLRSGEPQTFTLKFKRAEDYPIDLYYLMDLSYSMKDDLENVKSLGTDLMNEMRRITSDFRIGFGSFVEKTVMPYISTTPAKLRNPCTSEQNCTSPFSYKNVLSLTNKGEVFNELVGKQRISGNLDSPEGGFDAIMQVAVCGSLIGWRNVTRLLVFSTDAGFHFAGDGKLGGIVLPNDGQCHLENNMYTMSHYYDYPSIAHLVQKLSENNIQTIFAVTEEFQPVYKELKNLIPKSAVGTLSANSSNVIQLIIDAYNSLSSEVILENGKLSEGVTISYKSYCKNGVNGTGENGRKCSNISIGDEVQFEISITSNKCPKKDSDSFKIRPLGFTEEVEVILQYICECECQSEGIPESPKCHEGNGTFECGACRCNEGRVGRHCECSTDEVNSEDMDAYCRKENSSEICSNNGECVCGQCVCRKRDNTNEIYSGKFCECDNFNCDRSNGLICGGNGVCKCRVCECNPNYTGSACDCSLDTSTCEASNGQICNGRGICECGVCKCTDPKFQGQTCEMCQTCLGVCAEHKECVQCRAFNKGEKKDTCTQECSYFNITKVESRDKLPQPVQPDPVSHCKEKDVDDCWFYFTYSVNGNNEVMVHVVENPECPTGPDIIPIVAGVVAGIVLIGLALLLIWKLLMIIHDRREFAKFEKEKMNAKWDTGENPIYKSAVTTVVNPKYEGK

In the case of `CNC(=N)NCCC[C@H](N)C(=O)O` [NMMA], the “Effect on PGE2 production” value [1] is reported as “augmented”, the “Effect on NO production/accumulation” value [1] is reported as “inhibition” and the Nitrite [1] is reported as 0.8 ± 0.1^c μM. For the same molecule, the PGE2 [1] was 18.4 ± 0.8^c ng/ml.

For “IL-1β: cytokine used as positive control, 1 ng/ml”, the “Effect on PGE2 production” value [1] was “augmented”, the “Effect on NO production/accumulation” value [1] was “augmented” and the Nitrite [1] was 17.3 ± 2.4^a μM. The PGE2 [1] was 29.6 ± 7.2^c ng/ml and the “Effect on NO and PGE2 (inflammatory mediator) production, substance added as modulator” value ([2]; primary bovine chondrocytes) was “up-regulation”.

With JBS5 monoclonal antibody the IL-1β, human OA-affected cartilage explants, 72 h, 0.5 µg/ml JBS5 (pg/ml per 100 mg cartilage) [3] was 87.6, the IL-6, human OA-affected cartilage explants, 72 h, 0.5 µg/ml JBS5 (ng/ml per 100 mg cartilage) [3] was 17.7 and the IL-8, human OA-affected cartilage explants, 72 h, 0.5 µg/ml JBS5 (ng/ml per 100 mg cartilage) [3] was 17.7. For the same molecule, the Nitrite, human OA-affected cartilage explants, 72 h, 0.5 µg/ml JBS5 (µM per 100 mg cartilage) [3] was 12.7 and the PGE2, human OA-affected cartilage explants, 72 h, 0.5 µg/ml JBS5 (ng/ml per 100 mg cartilage) [3] was 19.1.

With “osteopontin: soluble secretory phosphoprotein, ligand of αvβ3” the “Effect on NO production/accumulation” value [1] was “inhibited” and the “Inhibition of PGE2 production relative to nitric oxide production” value [4] was “equally inhibit”.

B1: sIL-1RII: recombinant soluble type II IL-1 receptor cloned from human neutrophils, released from Sf9 insect cells (protein)
chain: FTLQPAAHTGAARSCRFRGRHYKREFRLEGEPVALRCPQVPYWLWASVSPRINLTWHKNDSARTVPGEEETRMWAQDGALWLLPALQEDSGTYVCTTRNASYCDKMSIELRVFENTDAFLPFISYPQILTLSTSGVLVCPDLSEFTRDKTDVKIQWYKDSLLLDKDNEKFLSVRGTTHLLVHDVALEDAGYYRCVLTFAHEGQQYNITRSIELRIKKKKEETIPVIISPLKTISASLGSRLTIPCKVFLGTGTPLTTMLWWTANDTHIESAYPGGRVTEGPRQEYSENNENYIEVPLIFDPVTREDLHMDFKCVVHNTLSFQTLRTTVKE
For B1, the “Effect on production of IL-1, nitric oxide, PGE2, IL-6, IL-8 and MMPs” value ([1]; human arthritis affected cartilage, ex vivo, in the presence or absence of IL-1) was “inhibits”, the “Effect on IL-1β and JBS5 monoclonal antibody induced NO and PGE2 production” value ([1]; osteoarthritis cartilage explants, FIG. 1b) was “inhibited significantly” and the “Effect on IL-1β induced accumulation of NO and PGE2” value ([2]; preincubation of cells for fifteen minutes) was “blocked”. For the same molecule, the “Effect on anti-αvβ3 monoclonal antibody induced production of NO and PGE2” value ([2]; preincubation of cells for fifteen minutes, inducer is JBS5) was “blocked”.
